Test results taken from patent US9212168B2 (priority 2011, dated 2015).
pEC50: −log10 of the molar value.

tested on: HCV genotype 1a replicon; experiment: HCV genotype 1a replicon assay (NS3 protease activity readout); assay type: cell-based, hepatitis C virus; conditions: HCV genotype 1a replicon
Outline: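 EC50 values came from a 4-parameter robust fit of fluorescence (ex 340, em 509 nm) produced by NS3-specific protease in lysates, assayed with 15 μM FRET substrate for 20 min at 37° C, after 48 or 72 hours of compound exposure (0.5% DMSO) of Huh7.5-derived APC89 genotype 1a replicon cells.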

Row | Compound | Genotype 1a
1 | COC(=O)N[C@H](C(=O)N1C[C@@H](C)C[C@H]1c1nc(-c2ccc(-c3cc(Cl)c(NC(=O)c4ccc(N5CCN(C(=O)[C@@H]6CCN6C(C)C)C[C@H]5C)nc4)cc3OC(F)(F)F)cc2)c[nH]1)C(C)C [Example 1-85] | B (B represents pEC50 between 8 and 9 (EC50 between 1 and 10 nM))
2 | COC(=O)N[C@@H](C(=O)N1C[C@@H](C)C[C@H]1c1nc(-c2ccc(-c3cc(Cl)c(NC(=O)c4ccc(N5CCN(C(=O)C(C)(C)CO)C[C@H]5C)nc4)cc3C(F)(F)F)cc2)c[nH]1)C1CCCCC1 [Example 19-5] | A (A represents a pEC50 value between 6 and 8 (EC50 between 1 μM and 10 nM))
3 | COC(=O)NC(C(=O)N1CC(OC)CC1c1nc(-c2ccc(-c3cc(Cl)c(NC(=O)c4ccc(N5CCN(C(=O)C(C)(C)CO)CC5C)nc4)cc3OC(F)(F)F)cc2)c[nH]1)C(C)OC (centres unmarked) [Example 16-8] | D (D represents pEC50>10 (EC50<0.1 nM))
4 | COC(=O)NC(C(=O)N1CC(C)CC1c1nc(-c2ccc(-c3cc(F)c(NC(=O)c4ccc(N5CCN(C(=O)C6CC6(F)Cl)CC5C)nc4)cc3OC(F)(F)F)cc2)c[nH]1)C(C)C (mixture of isomers) [Example 1-60] | D (D represents pEC50>10 (EC50<0.1 nM))
5 | COC(=O)N[C@H](C(=O)N1C[C@@H](C)C[C@H]1c1nc(-c2ccc(-c3cc(F)c(NC(=O)c4ccc(N5CCN(C(=O)[C@]6(C)CCCN6C(=O)OC(C)(C)C)C[C@H]5C)nc4)cc3OC(F)(F)F)cc2)c[nH]1)C(C)C [Example 1-26] | D (D represents pEC50>10 (EC50<0.1 nM))
6 | COC(=O)N[C@H](C(=O)N1C[C@@H](C)C[C@H]1c1nc(-c2ccc(-c3cc(Cl)c(C(=O)Nc4ccc(N5CCN(C(=O)C(C)(C)C)C[C@H]5C)nc4)cc3OC(F)(F)F)cc2)c(Cl)[nH]1)C(C)C [Example 4-47] | C (C represents pEC50 between and 9 and about 10, (EC50 between 1 nM and 0.1 nM))
7 | CNC(=O)N1C[C@@H](C)N(c2ccc(C(=O)Nc3cc(OC(F)(F)F)c(-c4ccc(-c5c[nH]c([C@@H]6C[C@H](C)CN6C(=O)[C@@H](NC(=O)OC(C)C)C(C)C)n5)cc4)cc3Cl)cn2)C[C@@H]1C [Example 7-5] | B (B represents pEC50 between 8 and 9 (EC50 between 1 and 10 nM))
8 | COC(=O)N[C@H](C(=O)N1C[C@@H](C)C[C@H]1c1nc(-c2ccc(-c3cc(Cl)c(NC(=O)c4ccc(N5CCN(C(=O)[C@H]6CC6(C)C)C[C@H]5C)nc4)cc3C(F)(F)F)cc2)c[nH]1)C(C)C [Example 1-31] | D (D represents pEC50>10 (EC50<0.1 nM))
9 | COC(=O)N[C@H](C(=O)N1C[C@@H](OC)C[C@H]1c1nc(-c2ccc(-c3cc(Cl)c(NC(=O)c4ccc(N5C[C@H](C)N(C(=O)NC(C)(C)C)C[C@H]5C)nc4)cc3OC(F)(F)F)cc2)c[nH]1)C1CCOCC1 [Example 28-9] | D (D represents pEC50>10 (EC50<0.1 nM))
10 | COC(=O)NC(C(=O)N1CC(F)CC1c1nc(-c2ccc(-c3cc(Cl)c(NC(=O)c4ccc(N5CCN(C(=O)C(C)(C)C)CC5C)nc4)cc3OC(F)(F)F)cc2)c[nH]1)C1CCOCC1 (centres unmarked) [Example 29-1] | D (D represents pEC50>10 (EC50<0.1 nM))
11 | COC(=O)N[C@H](C(=O)N1C[C@@H](C)C[C@H]1c1nc(-c2ccc(-c3ccc(NC(=O)c4ccc(N5CCN(C(=O)[C@H]6CC6(C)C)C[C@H]5C)nc4)cc3OC(F)(F)F)cc2)c[nH]1)C(C)C [Example 1-74] | D (D represents pEC50>10 (EC50<0.1 nM))
12 | COC(=O)N[C@H](C(=O)N1C[C@@H](C)C[C@H]1c1nc(-c2ccc(-c3cc(Cl)c(NC(=O)c4ccc(N5CCN(C(=O)c6c[nH]cn6)C[C@H]5C)nc4)cc3C(F)(F)F)cc2)c[nH]1)C(C)C [Example 1-32] | D (D represents pEC50>10 (EC50<0.1 nM))
13 | COC(=O)NC(C(=O)N1C[C@@H](C)C[C@H]1c1nc(-c2ccc(-c3cc(Cl)c(C(=O)Nc4ccc(N5CCN(C(=O)C(C)(C)C)C[C@H]5C)nc4)cc3OC(F)(F)F)cc2)c[nH]1)C1C[C@@H](C)O[C@@H](C)C1 (some centres unmarked) [Example 23-2] | D (D represents pEC50>10 (EC50<0.1 nM))
14 | COC(=O)N[C@H](C(=O)N1C[C@@H](C)C[C@H]1c1nc(-c2ccc(-c3ccc(C(=O)Nc4ccc(N5C[C@H](C)N(C(=O)C(C)(C)C)C[C@H]5C)nc4)cc3OC(F)(F)F)cc2)c(Cl)[nH]1)C(C)C [Example 4-26] | D (D represents pEC50>10 (EC50<0.1 nM))

same assay, conditions: Hepatitis C virus, read-out: Genotype 1a, HCV genotype 1a replicon

Row | Compound | pEC50
15 | COC(=O)N[C@H](C(=O)N1CC2(C[C@H]1c1nc(-c3ccc(-c4ccc(NC(=O)c5ccc(N6CCN(C(=O)[C@]7(C)CCCN7C(=O)[C@@H](NC(=O)OC)C(C)C)C[C@H]6C)nc5)cc4OC(F)(F)F)cc3)c[nH]1)OCCO2)C(C)C [Example 5-1] | > 10.00
16 | CC(C)[C@@H](C(=O)N1C[C@@H](C)C[C@H]1c1nc(-c2ccc(-c3cc(Cl)c(NC(=O)c4ccc(N5CCN(C(=O)C(C)(C)C)C[C@H]5C)nc4)cc3OC(F)(F)F)cc2)c[nH]1)N1CCCCC1 [Example 13-2] | 6.00 to 8.00
17 | COC(=O)N[C@@H](C(=O)N1C[C@@H](C)C[C@H]1c1nc(-c2ccc(-c3cc(Cl)c(NC(=O)c4ccc(N5CCN(C(=O)C(C)(C)C)C[C@H]5C)nc4)cc3OC(F)(F)F)cc2)c[nH]1)C1C[C@@H](C)O[C@@H](C)C1 (some centres unmarked) [Example 13-43] | 8.00 to 9.00
18 | COC(=O)N[C@H](C(=O)N1C[C@@H](C)C[C@H]1c1nc(-c2ccc(-c3cc(Cl)c(NC(=O)c4ccc(N5CCN(C(=O)c6ccccn6)C[C@H]5C)nc4)cc3OC(F)(F)F)cc2)c[nH]1)C(C)C [Example 12-7] | 9.00 to 10.00
19 | COC(=O)N[C@H](C(=O)N1C[C@@H](C)C[C@H]1c1nc(-c2ccc(-c3cc(Cl)c(NC(=O)c4ccc(N5CCN(C(=O)C(C)N(C)C)C[C@H]5C)nc4)cc3OC(F)(F)F)cc2)c[nH]1)C(C)C (some centres unmarked) [Example 12-23] | > 10.00
20 | COC(=O)N[C@H](C(=O)N1C[C@@H](N(C)C)C[C@H]1c1nc(-c2ccc(-c3ccc(C(=O)Nc4ccc(N5CCN(C(=O)N(C)C)C[C@H]5C)nc4)cc3OC(F)(F)F)cc2)c(Cl)[nH]1)C(C)C [Example 10-4] | 9.00 to 10.00
21 | C[C@H]1C[C@@H](c2nc(-c3ccc(-c4cc(Cl)c(NC(=O)c5ccc(N6CCN(C(=O)C(C)(C)C)C[C@H]6C)nc5)cc4OC(F)(F)F)cc3)c[nH]2)N(C(=O)C(c2ccccc2)N2CCNCC2)C1 (some centres unmarked) [Example 13-3] | 9.00 to 10.00
22 | COC(=O)N[C@H](C(=O)N1[C@@H]2C[C@@H]2C[C@H]1c1nc(-c2ccc(-c3cc(Cl)c(NC(=O)c4ccc(N5CCN(C(=O)C(C)(C)C)C[C@H]5C)nc4)cc3C(F)(F)F)cc2)c[nH]1)C(C)C [Example 8-5] | 9.00 to 10.00
23 | COC(=O)N[C@H](C(=O)N1C[C@@H](OC)C[C@H]1c1nc(-c2ccc(-c3cc(F)c(NC(=O)c4ccc(N5CCN(C(=O)C(C)(C)C)[C@@H](CO)C5)nc4)cc3OC(F)(F)F)cc2)c[nH]1)C1CCOCC1 [Example 5-16] | > 10.00
24 | COC(=O)N[C@H](C(=O)N1C[C@@H](C)C[C@H]1c1nc(-c2ccc(-c3cc(Cl)c(NC(=O)c4ccc(N5CCN(C(=O)C6(N)CC6(C)C)C[C@H]5C)nc4)cc3OC(F)(F)F)cc2)c[nH]1)C(C)C (some centres unmarked) [Example 12-9] | > 10.00
25 | COC(=O)N1CCN(C(C(=O)N2C[C@@H](C)C[C@H]2c2nc(-c3ccc(-c4cc(Cl)c(NC(=O)c5ccc(N6CCN(C(=O)C(C)(C)C)C[C@H]6C)nc5)cc4OC(F)(F)F)cc3)c[nH]2)c2ccccc2)CC1 (some centres unmarked) [Example 13-4] | 9.00 to 10.00
26 | COC(=O)N[C@H](C(=O)N1C[C@@H](C)C[C@H]1c1nc(-c2ccc(-c3cc(Cl)c(NC(=O)c4ccc(N5CCN(C(=O)C(C)(C)CNC(=O)C6CC6)C[C@H]5C)nc4)cc3OC(F)(F)F)cc2)c[nH]1)C(C)C [Example 12-37] | 9.00 to 10.00
